In patent US5925769A, “Acetylenic 1,5-diarylpyrazoles as antiinflammatory agents” (Ortho Pharmaceutical, Corp., priority 1998, dated 1999):
Read-outs that look alike come from different tables or passages of the source.

Key:
CO [1] = molecular target: T1, CO (Rattus norvegicus, UniProt Q63921); experiment: Procedure II: CO activity in broken RBL-1 cells (homogenate supernatant); format: biochemical; settings: RBL-1 broken cell supernatant; for inhibition at 10 µM: 20 min, @ 10 .quadrature.M, read-out: Proc. II CO % inhibition
T1 construct: the supernatant was saved as the source of enzymes; endogenous in cells; host or cells: RBL-1 (rat basophilic leukemia) cells
T1 sequence (Q63921 27-602): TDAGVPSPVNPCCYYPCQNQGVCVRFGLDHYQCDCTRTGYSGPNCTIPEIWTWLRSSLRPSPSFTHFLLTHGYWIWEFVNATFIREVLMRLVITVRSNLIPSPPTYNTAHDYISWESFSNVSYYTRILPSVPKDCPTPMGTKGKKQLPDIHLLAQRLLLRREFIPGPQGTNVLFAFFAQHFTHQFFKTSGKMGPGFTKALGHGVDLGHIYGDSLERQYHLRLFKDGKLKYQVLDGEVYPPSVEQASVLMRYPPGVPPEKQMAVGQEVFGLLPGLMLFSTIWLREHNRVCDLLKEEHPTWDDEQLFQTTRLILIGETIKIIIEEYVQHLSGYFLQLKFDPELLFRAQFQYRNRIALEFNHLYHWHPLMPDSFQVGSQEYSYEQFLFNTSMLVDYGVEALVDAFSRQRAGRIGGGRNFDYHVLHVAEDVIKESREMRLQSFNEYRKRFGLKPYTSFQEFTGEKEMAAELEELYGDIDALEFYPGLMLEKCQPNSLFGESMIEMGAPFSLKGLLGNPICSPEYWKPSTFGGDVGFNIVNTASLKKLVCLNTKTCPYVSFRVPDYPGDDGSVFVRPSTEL
Protocol: (§1) Procedure II was used to assess LO and CO activity. Rat basophilic leukemia cells (RBL-1; 5×10^7 viable cells/mL) were disrupted by homogenization on ice (four 20 sec bursts) with a Brinkman polytron. […] The homogenate was then centrifuged at 9,220×g for 48 minutes at 4° C. The pellet was discarded and the supernatant was saved as the source of enzymes. The supernatant was pre-incubated for five minutes at 37° C. in the presence of 2 mM of CaCl2 and compound or vehicle (1% DMSO). The conversion of AA into products by CO and LO was initiated by adding 10 μL (50 μCi) of 1-^14 C-AA to each tube and incubated at 37° C. for 20 minutes. The reaction was stopped by adjusting the pH of each sample to 3 to 3.5 with 2M formic acid. Samples were extracted with three volumes of chloroform to isolate the products of 5-LO formed during the reaction. Fractions were dried under nitrogen, then resuspended in 40 μL of chloroform and spotted onto silica gel HL plates. The plates were developed in A-9 solvent. The dried plates were analyzed using a Bioscan Imaging TLC scanner to determine the percentage of radiolabelled AA converted to 5-HETE (LO product) in each sample. The percentage of inhibition was calculated by:
(§2) [1-(5-HETE test)]/5-HETE control×100=% inhibition
(§3) The IC50 was determined using a curve fit in Cricket Graph (Computer Associated), which provided the equation of the regressed line used in the calculation.

[2] = molecular target: T2, Sheep seminal vesicle (SSV) cyclooxygenase (Ovis aries, UniProt P05979); experiment: Procedure I: inhibition of sheep seminal vesicle (SSV) cyclooxygenase; format: biochemical; settings: for inhibition at 10 µM: 20 min, read-out: Proc. I % inhibition; for IC50: read-out: Proc. I IC50
T2 construct: Sheep seminal vesicle (SSV) cyclooxygenase (95% pure); purchased Biomol (Plymouth Meeting, PA); host or cells: sheep seminal vesicle
T2 sequence (P05979 25-600): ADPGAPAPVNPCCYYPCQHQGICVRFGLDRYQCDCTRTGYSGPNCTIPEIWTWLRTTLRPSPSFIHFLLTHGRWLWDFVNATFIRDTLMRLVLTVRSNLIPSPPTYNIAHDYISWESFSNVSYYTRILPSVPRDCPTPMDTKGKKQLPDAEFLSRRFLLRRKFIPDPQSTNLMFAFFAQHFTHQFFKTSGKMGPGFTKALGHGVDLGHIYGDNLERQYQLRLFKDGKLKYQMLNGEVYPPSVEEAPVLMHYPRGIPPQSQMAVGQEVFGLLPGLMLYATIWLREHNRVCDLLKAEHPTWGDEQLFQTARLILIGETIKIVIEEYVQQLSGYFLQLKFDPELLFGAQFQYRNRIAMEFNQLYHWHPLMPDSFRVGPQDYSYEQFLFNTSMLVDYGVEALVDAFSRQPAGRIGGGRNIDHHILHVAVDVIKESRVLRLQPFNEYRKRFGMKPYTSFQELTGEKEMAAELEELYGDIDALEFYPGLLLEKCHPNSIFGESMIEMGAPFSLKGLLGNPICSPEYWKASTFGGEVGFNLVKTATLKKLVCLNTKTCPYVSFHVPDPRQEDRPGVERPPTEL
Protocol: Procedure I was used to determine the ability of the compounds to inhibit cyclooxygenase. […] The enzyme was divided into 200 μL aliquots, snap frozen with liquid N2, and stored at -70° C. until immediately prior to use. […] The tubes were mixed on a vortex shaker, preincubated for 5 min at 37° C. prior to the initiation of the reaction. The reaction was started by the addition of [^14 C]-arachidonic acid (1-^14 C-AA, Amersham, Arlington Heights, Ill.) in 10 μL of methanol. Tubes were again vortexed and incubated in a water bath for 20 minutes after which the tubes were removed and the reaction stopped by acidification with the addition of 1 mL 2M formic acid. Lipophilic products were extracted with 3 mL chloroform and concentrated to dryness under N2. Each pellet was reconstituted with 40 μL of chloroform and spotted on a Whatman Silicon thin-layer chromatography plate and developed in a chromatography tank containing A-9 solvent (11:5:2:1 V:V:VV, ethyl acetate:trimethyl-pentane:acetic acid:double distilled-H2 O). Radioactive cyclooxygenase products (prostaglandin D2, prostaglandin E2, etc.) were measured using a Bioscan System 200 Imaging Scanner. Inhibition of enzyme activity was calculated by comparing the areas under the curve produced in the presence or absence of test compound.

5-LO [3] = molecular target: T3, 5-LO (Rattus norvegicus, UniProt P12527); experiment: Procedure II: 5-LO activity (5-HETE) in broken RBL-1 cells (homogenate supernatant); format: biochemical; settings: RBL-1 broken cell supernatant; for inhibition at 10 µM: 20 min, @ 10 .quadrature.M, read-out: Proc. II 5-LO % inhibition; for IC50: read-out: Proc. II 5-LO IC50
T3 construct: the supernatant was saved as the source of enzymes; endogenous in cells; host or cells: RBL-1 (rat basophilic leukemia) cells
T3 sequence (P12527 1-673): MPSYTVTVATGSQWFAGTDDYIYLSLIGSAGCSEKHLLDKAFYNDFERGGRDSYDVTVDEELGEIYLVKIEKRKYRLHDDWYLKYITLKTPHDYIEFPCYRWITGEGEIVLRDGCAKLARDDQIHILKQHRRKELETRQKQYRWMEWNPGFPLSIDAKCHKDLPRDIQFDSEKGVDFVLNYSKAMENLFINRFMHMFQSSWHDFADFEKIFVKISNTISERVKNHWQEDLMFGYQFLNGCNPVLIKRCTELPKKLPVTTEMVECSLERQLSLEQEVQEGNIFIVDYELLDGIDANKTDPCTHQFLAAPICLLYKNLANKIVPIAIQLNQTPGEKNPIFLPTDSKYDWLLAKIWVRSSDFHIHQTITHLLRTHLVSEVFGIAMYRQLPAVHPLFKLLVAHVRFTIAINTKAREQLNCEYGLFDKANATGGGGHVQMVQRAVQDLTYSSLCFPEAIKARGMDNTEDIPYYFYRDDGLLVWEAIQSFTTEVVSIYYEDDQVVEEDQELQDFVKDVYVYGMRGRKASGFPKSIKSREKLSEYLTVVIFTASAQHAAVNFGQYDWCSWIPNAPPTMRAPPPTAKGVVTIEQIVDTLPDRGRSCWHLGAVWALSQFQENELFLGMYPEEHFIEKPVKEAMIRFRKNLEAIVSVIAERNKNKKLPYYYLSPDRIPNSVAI
Protocol: as §1, §2, §3

5-LO [4] = molecular target: T3, 5-LO; experiment: Procedure III: 5-LO (5-HETE) in intact RBL-1 cells; format: cell-based; settings: calcium ionophore A 23187, read-out: Proc. III 5-LO IC50
Protocol: as §3
(§4) In Procedure III, the ability to inhibit 5-LO and CO in intact RBL-1 cells was also evaluated. […] Cells were collected by centrifugation, washed once in HBSS, and resuspended at a concentration of 1×10^5 cells/mL. Cells were incubated in the presence of vehicle or drug then centrifuged at 800×g for 10 minutes at 4° C. The supernatant was removed by aspiration and the cells were resuspended in 0.5 mL of HBSS. […] The conversion of AA to 5-LO products was initiated by the addition of 10 μL (50 μCi) of 1-^14 C-AA. Products were isolated by acidification and extraction, followed by thin layer chromatography analysis as described above. Radioactive areas corresponding to authentic 5-LO (5-HETE) and CO (PgD2) products were quantitated by the Bioscan 2000 Imaging System and the IC50 was calculated as above.

CO [5] = molecular target: T1, CO; experiment: Procedure III: CO (PgD2) in intact RBL-1 cells; format: cell-based; settings: calcium ionophore A 23187, read-out: Proc. III CO IC50
Protocol: as §3, §4

[6] = @ 10 .quadrature.M, SSV cyclooxygenase

Row | SMILES | inhibition at 10 µM (CO [1]) | inhibition at 10 µM [2, 6] | inhibition at 10 µM (5-LO [3]) | IC50 (5-LO [4]) | IC50 (CO [1]; read-out: Proc. II CO IC50) | IC50 ([2]; SSV cyclooxygenase) | IC50 (CO [5]) | IC50 (5-LO [3]) | inhibition at 10 µM [2]
1 | CCc1ccc(-c2cc(C#CC(C)N(O)C(=O)CCC(=O)O)nn2-c2ccc(OC)cc2)cc1 (stereo not shown) [Cpd 33] | 0% | 0% | 37% | – | – | – | – | – | –
2 | COc1ccc(-n2nc(C#CC(C)N(O)C(C)=O)cc2-c2ccc(C)cc2)cc1 (stereo not shown) [Cpd 18, N-Acetyl-N-(1-(1-(4-methoxyphenyl)-5-(4-methylphenyl)pyrazol-3-yl)-1-butyn-3-yl)hydroxylamine] | – | – | – | 13100 nM | 10 nM | 310 nM | 110 nM | 80 nM | –
3 | COc1ccc(-n2nc(C#CC(C)N(O)C(=O)CCl)cc2-c2ccc(C)cc2)cc1 (stereo not shown) [Cpd 21, N-Chloroacetyl-N-(1-(1-(4-methoxyphenyl)-5-(4-methylphenyl)pyrazol-3-yl)-1-butyn-3-yl)hydroxylamine] | 100% | – | 100% | 23600 nM | – | 1200 nM | 360 nM | – | –
4 | COc1ccc(-n2nc(C#CC(C)N(O)C(=O)N3CCCCC3)cc2-c2ccc(Cl)cc2)cc1 (stereo not shown) [Cpd 9] | – | – | 76% | 8000 nM | – | – | – | – | 44%
5 | CCc1ccc(-c2cc(C#CC(C)N(O)C(=O)CN3CCOCC3)nn2-c2ccc(OC)cc2)cc1 (stereo not shown) [Cpd 44] | 0% | 0% | 93% | – | – | – | – | – | –
6 | CCc1ccc(-c2cc(C#CC(C)N(O)C(=O)CN3CCN(C)CC3)nn2-c2ccc(OC)cc2)cc1 (stereo not shown) [Cpd 45, N-(4-methylpiperazin-1-yl)acetyl-N-(1-[5-(4-ethylphenyl)-1-(4-methoxyphenyl)pyrazol-3-yl]-1-butyn-3-yl)hydroxylamine] | 11% | 0% | 25% | – | – | – | – | – | –
7 | COc1ccc(-n2nc(C#CCN(O)C(=O)c3ccccc3)cc2-c2ccc(C)cc2)cc1 [Cpd 15] | – | – | 100% | 8000 nM | – | – | – | – | 52%
8 | COc1ccc(-n2nc(C#CC(C)N(O)C(=O)CNCCCN(C)C)cc2-c2ccc(C)cc2)cc1 (stereo not shown) [Cpd 42] | 14% | 0% | 29% | – | – | – | – | – | –
9 | CCCNC(=O)N(O)C(C)C#Cc1cc(-c2ccc(Cl)cc2)n(-c2ccc(OC)cc2)n1 (stereo not shown) [Cpd 8] | 32% | 14% | 82% | 2800 nM | – | – | – | – | –
10 | COc1ccc(-n2nc(C#CC(C)N(O)C(=O)CCC(=O)O)cc2-c2ccc(Cl)cc2)cc1 (stereo not shown) [Cpd 39] | 0% | 0% | 74% | – | – | – | – | – | –
11 | COc1ccc(-n2nc(C#CC(C)N(O)C(=O)C(C)C)cc2-c2ccc(Cl)cc2)cc1 (stereo not shown) [Cpd 37] | 80% | – | 100% | – | – | – | – | – | –
12 | CNC(=O)N(O)C(C)C#Cc1cc(-c2ccc(Cl)cc2)n(-c2ccc(OC)cc2)n1 (stereo not shown) [Cpd 7] | 0% | 5% | 79% | – | – | – | – | – | –
13 | CCC(=O)N(O)C(C)C#Cc1cc(-c2ccc(Cl)cc2)n(-c2ccc(OC)cc2)n1 (stereo not shown) [Cpd 36] | 100% | – | 100% | – | – | – | – | – | –
14 | CCC(=O)N(O)C(C)C#Cc1cc(-c2ccc(C)cc2)n(-c2ccc(OC)cc2)n1 (stereo not shown) [Cpd 19] | 67% | 76% | 93% | – | – | – | – | – | –
15 | COc1ccc(-n2nc(C#CCN(O)C(N)=O)cc2-c2ccc(Cl)cc2)cc1 [Cpd 5, N-hydroxy-N-(1-(5-(4-chlorophenyl)-1-(4-methoxyphenyl)pyrazol-3-yl)-1-propyn-3-yl)urea] | 0% | 9% | – | 900 nM | – | – | – | 80 nM | –
16 | CCCCCCCC(=O)N(O)C(C)C#Cc1cc(-c2ccc(Cl)cc2)n(-c2ccc(OC)cc2)n1 (stereo not shown) [Cpd 38] | 21% | 31% | 100% | – | – | – | – | – | –
17 | COc1ccc(-n2nc(C#CC(C)N(O)C(=O)c3ccco3)cc2-c2ccc(C)cc2)cc1 (stereo not shown) [Cpd 25, N-(furan-2-carbonyl)-N-(1-(1-(4-methoxyphenyl)-5-(4-methylphenyl)pyrazol-3-yl)-1-butyn-3-yl)hydroxylamine] | 61% | – | 70% | – | – | 1300 nM | – | – | –
